Experimental findings from patent US10292992B2, “Selective high-affinity polydentate ligands and methods of making such” (LAWRENCE LIVERMORE NATIONAL SECURITY, LLC, priority 2008, dated 2019) are described below.

Data set [1] deals with Raji cells expressing HLA-DR10. Briefly: Whole cell binding assay with 111In-labeled SHAL. The settings on record: for SHAL bound by Raji cells relative to parent SHAL: unwashed. Type of data set: cell-based, human. Here is the method:
Raji human Burkitt's lymphoma B-cells (American Type Culture Collection, Manassas, Va.) were maintained in RPMI-1640 media supplemented with 10% fetal bovine serum, 2mM L-glutamine, 1 mM sodium pyruvate, 1% of a solution of nonessential amino acids (GIBCO #11140-050), and 100 units/ml of Penicillin G, 100 μg/ml Streptomycin, and 0.25 μg/ml of Amphotericin B at 37° C. in a humidified 5% CO2 atmosphere. Jurkat's cells (American Type Culture Collection, Manassas, Va.), an acute leukemia T-cell line, were maintained in the same medium with the addition of 10 mM 4-(2-hydroxyethyl)-1-piperazineethanesulfonic acid (HEPES).
A series of experiments were conducted to quantify the uptake of the ^111In-labeled parent SHAL (DvLPBaPPP)2LLDo and its hexa-arginine analog (DvLPBaPPP)2LArg6AcLLDo by Raji cells, a cell line that has been previously shown to express the HLA-DR10 variant. The assays were conducted using aliquots containing 10^6 cells suspended in 150 μl of PBS with 5% bovine serum albumin (BSA). Aliquots of cells were treated with 0.1, 1, 5, 10 or 25 ng of ^111In-labeled (DvLPBaPPP)2LLDo or (DvLPBaPPP)2LArg6AcLLDo for one hour at both 4° C. and 22° C. The tubes containing the treated cells were centrifuged to separate the cell pellet from the supernatant and the two fractions were counted in a calibrated gamma well counter to determine the amount of bound and free SHAL. Half of the cell pellets were washed twice with PBS and incubated at 22° C. for 15 min before centrifuging them again. The pooled washes and washed cell pellets were subsequently counted in the gamma well counter to assess how much of the bound SHAL could be removed by washing.
In vitro cell binding experiments were conducted using ^111In-labeled parent SHAL and the hexa-arginine SHAL analog to quantify SHAL uptake and to evaluate the effect of adding the hexa-arginine tag. Uptake was assessed using Raji cells, a lymphoma cell line expressing HLA-DR10. Aliquots containing 10^6 cells were incubated with increasing amounts of SHAL containing ^111In labeled SHAL as a tracer, and cell-associated ^111In was measured before and after washing the cell pellets.

The next data set deals with Raji cells. Briefly: 3-D confocal microscopy, Raji cells. Type of data set: cell-based, human. The settings on record: biotinylated reagent, 1 hr, 10 μM SHAL or 10 nM chLym-1. Here is the method:
(§1) SHAL binding and internalization by Raji and Jurkat's cells was assessed using the method described previously by O'Donnell et al. (O'Donnell et al. (1998) Prostate 37:91-97). Experiments were conducted comparing the binding of (DvLPBaPPP)2LLDo (the parent SHAL), its hexa-arginine analog (DvLPBaPPP)2LArg6AcLLDo, and chimeric Lym-1 (chLym-1) to Raji cells. All steps were performed at 20° C., unless indicated.
(§2) Four million Raji cells (>92% viability) in log phase growth were pelleted at 300×g, washed, and blocked for 30 min in 1 ml of 1% fraction V BSA in PBS, with constant rotation. Cells were then incubated 1 hr, at 1 million per 250 μl, with either 1% BSA in PBS or a biotinylated primary reagent: 10 nM chLym-1, 10 μM parent SHAL, or 10 μM hexa-arginine SHAL. After four washes (two in 1% BSA in PBS, two in PBS), 50 μl of the cell suspensions was applied to freshly poly-L-Lysine coated slides, and cells were allowed to adhere for 10 min in a humid chamber. Fixation and permeabilization were performed at −20° C. by using a 4 min exposure to methanol. Jurkat's cells were treated in the same manner as a control.
Slides were then washed twice in PBS and blocked in 10% fetaplex serum (Gemini Bioproducts, West Sacramento, Calif.) in PBS for 15 min and washed once in PBS. The detection reagent, Streptavidin AlexaFluor 610 (Invitrogen, Carlsbad, Calif.) was diluted 1/500 in diluent, 100 μl was applied; a parafilm cover slip was layered over the solution to prevent evaporation. The slides were incubated in a humid chamber for 30 min., washed 5 times for 5 min each in PBS, and rinsed briefly in double distilled H2O. After the slides dried, cover slips were mounted with ProlongGold with 4′,6-diamidino-2-phenylindole (DAPI, Invitrogen, Carlsbad, Calif.). The slides were viewed with an Olympus FV1000 laser scanning confocal microscope and data were collected as Z-scans at 160×, with focal sections being taken 1 μm apart through the cell.

The test system of data set [2] is Jurkat's cells (cells lacking HLA-DR10). Briefly: 3-D confocal microscopy, Jurkat's cells. The settings on record: biotinylated reagent, 1 hr. Type of data set: cell-based, human. The protocol: as §1, §2
Slides were then washed twice in PBS and blocked in 10% fetaplex serum (Gemini Bioproducts, West Sacramento, Calif.) in PBS for 15 min and washed once in PBS. […]

Data set [3] can be described thus: Stability in human plasma by cellulose acetate electrophoresis. Type of data set: in vitro ADME. The settings on record: human plasma at 37° C. for 24 hrs; one preliminary CAE experiment. The text has this:
Two forms of the free amine SHAL, (DvLPBaPPP)2LLA, and the hexa-arginine analog, (DvLPBaPPP)2LArg6AcLLA, were synthesized in multi-milligram amounts and purified by high performance liquid chromatography (HPLC). A biotin was attached to the ε-amino group of the terminal amine (A) on both (DvLPBaPPP)2LLA and (DvLPBaPPP)2LArg6AcLLA to produce biotinylated forms for use in cell and protein binding experiments. 1,4,7,10-tetraazacyclododecane-1,4,7,10-tetraacetic acid (DOTA) was attached to both (DvLPBaPPP)2LLA and (DvLPBaPPP)2LArg6AcLLA at the same site to enable the SHALs to be labeled with ^111In. The DOTA SHAL (DvLPBaPPP)2LLDo (FIG. 25A) and the hexa-arginine SHAL analog (DvLPBaPPP)2LArg6AcLLDo (FIG. 25B) were labeled with ^111In at high efficiency (>90%) with specific activities ranging from 70-85 μCi/μg SHAL. […] D-isomers of arginine incorporated during the synthesis of the hexa-arginine sequence in (DvLPBaPPP)2LArg6AcLLDo were used to minimize the proteolytic susceptibility of the peptide.

For the next data set, the system named is Raji xenografts. Briefly: Electron microscopy of Raji xenografts after SHAL treatment. The note with it: after 100 ng of biotinylated SHAL. It counts as in vivo, mice. The protocol:
Raji xenografts (53-132 mm^3) were harvested for EM from mice, untreated (control) and 2, 4 or 24 h after 100 ng of biotinylated SHAL.

Entries after “also recorded” stand apart in the source; their conditions may differ.

`CC(=O)NC(CCCNC(=N)N)C(=O)NC(CCCNC(=N)N)C(=O)NC(CCCNC(=N)N)C(=O)NC(CCCNC(=N)N)C(=O)NC(CCCNC(=N)N)C(=O)NC(CCCNC(=N)N)C(=O)NCCCCC(NC(=O)C(CCCCNC(=O)COCCOCCNC(=O)COCCOCCNC(=O)COCCOCCNC(=O)C(CCCCNC(=O)COCCOCCNC(=O)c1ccc(NC(=O)C(CCCNC(=N)N)NC(=O)c2ccccc2)cc1)NC(=O)C(NS(=O)(=O)c1ccc(N=Nc2ccc(N(C)C)cc2)cc1)C(C)C)NC(=O)COCCOCCNC(=O)COCCOCCNC(=O)COCCOCCNC(=O)C(CCCCNC(=O)COCCOCCNC(=O)c1ccc(NC(=O)C(CCCNC(=N)N)NC(=O)c2ccccc2)cc1)NC(=O)C(NS(=O)(=O)c1ccc(N=Nc2ccc(N(C)C)cc2)cc1)C(C)C)C(=O)NC(CCCCNC(=O)CN1CCN(CC(=O)O)CCN(CC(=O)O)CCN(CC(=O)O)CC1)C(=O)O` (stereo not shown) [(DvLPBaPPP)2LArg6AcLLDo]: the “pmoles SHAL Bound/10^6 cells unwashed” value in data set [1] (5.3 pmoles of 111In-labeled SHAL, unwashed cell pellets) is 1.300 ± 0.038 pmoles SHAL Bound/10^6 cells. In data set [1] (5.3 pmoles of 111In-labeled SHAL, washed two times with BSA/buffer), the “pmoles SHAL Bound/10^6 cells Washed” value is on record as 0.876 ± 0.017 pmoles SHAL Bound/10^6 cells. For the same compound, the “SHAL remaining associated with Raji cells after washing relative to parent SHAL” value in data set [1] (111In-labeled, after washing, listed as hexa-arginine SHAL) is recorded as “Three fold more; also recorded: three times”. Further, the “SHAL bound by Raji cells relative to parent SHAL” value in data set [1] (111In-labeled, listed as hexa-arginine SHAL) is “twice as much”; in data set [1] (111In-labeled, listed as hexa-arginine SHAL analog), “two fold more”. Moreover, in data set [1] (Raji cells, after washing), the “proportion of SHAL retained by the cells after washing” value is given as 67%. Further, in data set [1] (after washing two times), the “Percent SHAL Retained” value was 67%. For the same compound, the “amount of residualized SHAL” value in data set [1] (highest concentration tested) is given as ~1.1×10^6 SHAL molecules per cell. The “SHAL binding, uptake and localization in Raji cells” value in the data set with Raji cells was “internalized”; with Raji cells (listed as hexa-arginine SHAL), “localized in the nucleus; also recorded: significantly more; also recorded: associated with the nucleus”; in the data set on Raji cells (listed as hexa-arginine SHAL analog), “associated with the nucleus”; with Raji cells (listed as hexa-arginine analog), “marked cytoplasmic binding but also intranuclear targeting; also recorded: taken up and internalized”. For the same compound, in data set [2], the “SHAL uptake in Jurkat's cells” value is “minimal SHAL uptake”. In addition, in data set [3], the “degradation in human plasma” value is reported as “no evidence of degradation”.
Consider `CC(C)C(NS(=O)(=O)c1ccc(N=Nc2ccc(N(C)C)cc2)cc1)C(=O)NCCOCCOCC(=O)NC(CCCCNC(=O)C(CCCCNC(=O)CC(=O)Nc1ccccc1Oc1ncc(C(F)(F)F)cc1Cl)NC(=O)COCCOCCNC(=O)c1ccc(N2CCN(Cc3ccc(Cl)cc3)CC2)c([N+](=O)[O-])c1)C(=O)NCCOCCOCC(=O)NC(CCCCNC(=O)CN1CCN(CC(=O)O)CCN(CC(=O)O)CCN(CC(=O)O)CC1)C(=O)O` (stereo not shown) [tridentate SHAL], for which the “electron microscopy findings in xenograft cells” value in the data set with Raji xenografts was “highly condensed nuclear chromatin and fragmented organelles”; with Raji xenografts (listed as SHAL), “condensed and fragmented chromatin and loss of cytoplasmic structures consistent with autophagic death”.
